One molecule from US20200171032A1, “METHODS AND MEDICAL USES” (THE INSTITUTE OF CANCER RESEARCH: ROYAL CANCER HOSPITAL, priority 2017, published 2020) can be followed below.

The subject of one experiment is wt-MCF7 cells. The experiment is described as follows: 2D cell viability assay (CellTitre-Glo), wt-MCF7. The experiment is classed as cell-based. The method, then:
(§1) ER+ BC lines, wild type (wt) MCF7, wt-HCC1428, wt-SUM44, wt-T47D and wt-ZR75.1 cells were obtained from ATCC and cultured in phenol red-free RPMI 1640 medium (Gibco, Thermo Fisher Scientific, Loughborough, UK) supplemented with 10% fetal bovine serum (Gibco, Thermo Fisher Scientific) and 1 nM E2 at 37° C. in 5% CO2. Cell lines identity was confirmed by short tandem repeat profiling (Promega, Madison, Wis., USA). Long-term-estrogen-deprived cells (MCF7-LTED^wt ESR1 and MCF7-LTED^Y537C mutants, HCC1428-LTED, SUM44-LTED and ZR75.1-LTED) modelling resistance to an endocrine therapy were cultured in phenol red free RPMI 1640 supplemented with 10% dextran charcoal-stripped fetal bovine serum (DCC-FBS).
(§2) In order to assess effect of MPS1 inhibition on BC cells grown 2D, cells were seeded into white 96-well plates (Greiner Bio-One, Gloucestershire, UK) in RPMI 1640 supplemented with 10% DCC-FBS. Wt cells were stripped of E2 for 72 hrs prior to experiment. After 24 hrs cells were treated with escalating doses of MPS1 inhibitors±4-OHT or fulvestrant in presence or absence of E2. Media was replaced after 3 days and cell viability was assessed after 6 days using the CellTitre-Glo® Luminescent Cell Viability Assay (Promega) according to manufacturer's instructions.

The test system of a further experiment is SUM44 LTED cells. Briefly: 2D cell viability assay, SUM44 LTED. Type of experiment: cell-based. Conditions: absence or presence of E2. The method, then: Cell viability was assessed using TitreGlo. Data was normalised to vehicle control for each condition.
as §1, §2

The test system of a further experiment is wt-T47D^991R cells. Briefly: Proliferation assay in palbociclib-resistant wt-T47D. Type of experiment: cell-based. Conditions: 144 h; CCT289346 added to palbociclib, 6 days. The method, then: Cell viability was determined using TiterGlo and data expressed as fold cell viability.
A panel of breast cancer cell lines (wt-MCF7, MCF7 LTED, wt-T47D and T47D LTED) with varying phenotypic backgrounds, were treated long-term in the presence of a CDK4/6 inhibitor (palbociclib, 1 μM). Resistance was authenticated by culturing the resistant cell lines with escalating concentrations of palbociclib in comparison with their wild-type progenitor (FIG. 13).
To address the validity of MPS1 as a common determinant of resistance to CDK4/6 inhibition, proliferation assays were performed using MPS1 inhibitors CCT289346 and NMS-P715 in the presence or absence of palbociclib in variety of breast cancer cell lines, including wild type (FIG. 15) and LTED cell lines (FIG. 16).

A further experiment has as its system MCF7-LTED xenografts. Briefly: In vivo efficacy, MCF7-LTED xenograft. More on the design: species or system mice. As for the experimental part: In vivo studies were carried out in ovariectomized 8- to 12-week-old female NCr out-bred nude mice in accordance with Home Office guidelines and approved by the Institute of Cancer Research Ethics Committee. Xenografts modelling patients resistant to aromatase treatment were initiated by innoculating MCF7-LTED (5×10^6) cells in basement membrane matrix (1:1 Matrigel; BD Biosciences) into the right flank of each animal. Once tumours reached 7 mm in size, mice were randomized and treated with either 200 mg/kg fulvestrant (formulated in peanut oil) injected subcutaneously once a week (day 5), 50 mg/kg CCT289346 administered twice weekly by oral gavage (day 1 and day 4) or a combination of the two agents for 40 days. The control arm was treated with both vehicles. Tumours were measured twice weekly for 40 days.
Tumor growth was assessed twice weekly in all arms by caliper measurements of the two largest diameters. Volumes were then calculated according to the formula: a×b^2×π/6, where a and b are orthogonal tumour diameters. For each tumor, volumes were reported to the initial volume as relative tumor volume (RTV). Means (and SE) of RTV in the same treatment group were calculated, and growth curves were established as a function of time.

SMILES strings stand for the structures.

`CCOc1cc(-c2nncn2C)ccc1Nc1ncc2cc(C)nc(NCC(C)(C)C)c2n1` [CCT289346, N2-(2-ethoxy-4-(4-methyl-4H-1,2,4-triazol-3-yl)phenyl)-6-methyl-N8-neopentylpyrido[3,4-d]pyrimidine-2,8-diamine]: the “further drop in proliferation” value in the experiment with wt-MCF7 cells (added to DCC (absence of E2, modelling combination with an endocrine therapy)) amounted to 20%. Also, the effect on proliferation entry with wt-MCF7 cells (escalating concentrations, in the presence of E2) is “concentration dependent decrease in proliferation”; with SUM44 LTED cells it was “concentration dependent decrease in proliferation”. In addition, the IC50 is 100 nM in the experiment on wt-MCF7 cells (wt-MCF7, in the presence of E2, read-out: IC50, proliferation) and around 50 nM with wt-T47D^991R cells. Further, the “tumour volume, comparison between the monotherapies” value in the experiment on MCF7-LTED xenografts (CCT289346 50 mg/kg versus fulvestrant 200 mg/kg) was “no statistical difference”. Besides, the “tumour volume, combination compared to fulvestrant alone” value in the experiment with MCF7-LTED xenografts (CCT289346 in combination with fulvestrant, p=0.066) is on record as “trend towards statistical significance”. Also, the “tumour volume compared to control” value in the experiment with MCF7-LTED xenografts (monotherapy, fulvestrant 200 mg/kg s.c. once a week, CCT289346 50 mg/kg oral gavage twice weekly, 40 days) is given as “significantly reduced tumour volume”.
